Assay results reported in patent US20260356820A1, “Pyrrolidine and Imidazolidine Based DNA Polymerase Theta Inhibitors and Use Thereof” (Thomas Jefferson University, priority 2022, published 2026).
Read-outs that look alike come from different tables or passages of the source.

Biological target: T1, human Polq polymerase domain (Homo sapiens, UniProt O75417)
T1 sequence (O75417 1792-2590): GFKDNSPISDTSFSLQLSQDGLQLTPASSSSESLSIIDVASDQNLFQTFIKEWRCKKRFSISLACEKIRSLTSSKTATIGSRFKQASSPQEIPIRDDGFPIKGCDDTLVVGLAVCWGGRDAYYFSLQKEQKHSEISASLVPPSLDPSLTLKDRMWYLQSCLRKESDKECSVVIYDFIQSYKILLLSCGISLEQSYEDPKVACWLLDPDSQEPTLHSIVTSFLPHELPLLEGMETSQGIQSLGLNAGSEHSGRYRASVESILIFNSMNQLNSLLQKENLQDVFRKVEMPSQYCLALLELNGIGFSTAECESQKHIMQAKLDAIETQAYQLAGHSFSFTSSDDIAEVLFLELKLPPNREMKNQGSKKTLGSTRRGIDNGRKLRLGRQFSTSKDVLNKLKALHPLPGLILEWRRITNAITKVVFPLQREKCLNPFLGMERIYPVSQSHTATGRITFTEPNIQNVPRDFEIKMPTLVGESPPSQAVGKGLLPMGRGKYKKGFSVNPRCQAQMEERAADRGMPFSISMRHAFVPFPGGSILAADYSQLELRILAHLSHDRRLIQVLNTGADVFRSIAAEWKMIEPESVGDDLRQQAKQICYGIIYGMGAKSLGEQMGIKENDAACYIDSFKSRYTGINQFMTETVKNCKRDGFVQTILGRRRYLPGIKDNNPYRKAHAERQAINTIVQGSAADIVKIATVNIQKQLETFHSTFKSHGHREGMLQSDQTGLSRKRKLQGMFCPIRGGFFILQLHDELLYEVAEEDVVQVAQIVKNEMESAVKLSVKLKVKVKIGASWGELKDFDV
Experiment: Cy5 fluorescence assay of Polq polymerase domain inhibition
Type: biochemical
Description: The following Cy5 fluorescence assay was used to measure the ability of compounds to inhibit Polq polymerase domain in vitro. The fluorescent based assay was performed as follows: 60 nM of the pre-annealed primer-template containing a 5′ Cy5 fluorophore conjugated template strand (SEQ ID NO:3: 5′-/5Cy5/[…]-3′), a downstream complementary oligo conjugated with a 3′ Blackhole quencher (SEQ ID NO:4: 5′-CTAAGCTCACAGTG/3IAbRQSp/-3′) and a primer strand (SEQ ID NO:5: 5′-CTGTCCTGCATGATG-3′) was mixed with 50 uM 2′-deoxyribonucleoside triphosphates (dNTPs), 0.1 mg/mL Bovine serum albumin (BSA), 0.01% NP-40, 10% glycerol, 1 mM dithiothreitol (DTT), 10 mM MgCl2, 25 mM TrisHCl pH 7.8 in the presence of 2.5% DMSO with or without various concentrations (7-point dilution series) of Polq small molecule inhibitors represented by Formula I at 37 °C in a volume of 40 μL.

[1] = 5 nM Polq polymerase domain (residues 1792-2590), 60 nM primer-template, 50 uM dNTPs, 37 °C, 18 min, read-out: IC50 (nM) Polq

| Structure (SMILES) | IC50 [1] | IC50 |
| --- | --- | --- |
| CN(C(=O)Oc1c(N2CCCC2)cc(C(F)(F)F)cc1C(F)(F)F)c1ccc(F)cc1 [Example 11, 2,4-bis(trifluoromethyl)-6-(pyrrolidin-1-yl)phenyl 4-fluorophenylmethylcarbamate] | 15 nM |  |
| CN(C(=O)Oc1c(N2CCNC2=O)cc(C(F)(F)F)cc1C(F)(F)F)c1ccc(F)c(Cl)c1F [Example 7, 2,4-bis(trifluoromethyl)-6-(2-oxoimidazolidin-1-yl)phenyl (3-chloro-2,4-difluorophenyl)(methyl)carbamate] |  | 4 nM |
| CN(C)CC(O)CN1CCN(c2cc(C(F)(F)F)cc(C(F)(F)F)c2OC(=O)N(C)c2ccc(F)cc2)C1=O (stereo not shown) [Example 24, 2-(3-(3-(dimethylamino)-2-hydroxypropyl)-2-oxoimidazolidin-1-yl)-4,6-bis(trifluoromethyl)phenyl (4-fluorophenyl)(methyl)carbamate] | 6.7 nM |  |
| CN(C(=O)Oc1c(N2CC[C@H](O)C2=O)cc(C(F)(F)F)cc1C(F)(F)F)c1ccc(F)cc1 [Example 19, 2,4-bis(trifluoromethyl)-6-((S)-3-hydroxy-2-oxopyrrolidin-1-yl)phenyl 4-fluorophenylmethylcarbamate] | 16 nM |  |
| CN(C(=O)Oc1c(N2CC(C(F)(F)F)NC2=O)cc(C(F)(F)F)cc1C(F)(F)F)c1ccc(F)cc1 (stereo not shown) [Example 18, 2-(2-oxo-4-(trifluoromethyl)imidazolidin-1-yl)-4,6-bis(trifluoromethyl)phenyl (4-fluorophenyl)(methyl)carbamate] |  | 22 nM |
| Cc1nc(N(C)C(=O)Oc2c(N3CCNC3=O)cc(C(F)(F)F)cc2C(F)(F)F)ccc1F [Example 53, 2-(2-oxoimidazolidin-1-yl)-4,6-bis(trifluoromethyl)phenyl (5-fluoro-6-methylpyridin-2-yl)(methyl)carbamate] |  | 2.7 nM |
| CNCC(O)CN1CCN(c2cc(C(F)(F)F)cc(C(F)(F)F)c2OC(=O)N(C)c2ccc(F)c(Cl)c2F)C1=O (stereo not shown) [Example 47, 2-(3-(2-hydroxy-3-(methylamino)propyl)-2-oxoimidazolidin-1-yl)-4,6-bis(trifluoromethyl)phenyl (3-chloro-2,4-difluorophenyl)(methyl)carbamate] |  | 4.8 nM |
| [2H]C([2H])([2H])N(C(=O)Oc1c(N2CCN(CC(O)CNC)C2=O)cc(C(F)(F)F)cc1C(F)(F)F)c1ccc(F)cc1 (stereo not shown) [Example 45, 2-(3-(2-hydroxy-3-(methylamino)propyl)-2-oxoimidazolidin-1-yl)-4,6-bis(trifluoromethyl)phenyl (4-fluorophenyl)(methyl-d3)carbamate] | 6.1 nM |  |
| Cc1cc(C(F)(F)F)cc(N2CCOC2=O)c1OC(=O)N(C)c1ccc(F)cc1 [Example 15, 4-(trifluoromethyl)-2-methyl-6-(2-oxooxazolidin-3-yl)phenyl 4-fluorophenylmethylcarbamate] | 80 nM |  |
| CN1CCN(c2cc(C(F)(F)F)cc(C(F)(F)F)c2OC(=O)N(C)c2ccc(F)c(Cl)c2F)C1=O [Example 8, 2,4-bis(trifluoromethyl)-6-(3-methyl-2-oxoimidazolidin-1-yl)phenyl (3-chloro-2,4-difluorophenyl)(methyl)carbamate] |  | 3.4 nM |
| CN(C(=O)Oc1c(N2CCN(C3CCS(=O)(=O)C3)C2=O)cc(C(F)(F)F)cc1C(F)(F)F)c1ccc(F)cc1 (stereo not shown) [Example 35, 2-(3-(1,1-dioxidotetrahydrothiophen-3-yl)-2-oxoimidazolidin-1-yl)-4,6-bis(trifluoromethyl)phenyl (4-fluorophenyl)(methyl)carbamate] |  | 2.5 nM |
| Cc1cc(C(F)(F)F)cc(N2CCNC2=O)c1OC(=O)N(C)c1ccc(F)cc1 [Example 13, 2-methyl-6-(2-oxoimidazolidin-1-yl)-4-(trifluoromethyl)phenyl(4-fluorophenyl)(methyl)carbamate] |  | 29 nM |
| [2H]C([2H])([2H])N(C(=O)Oc1c(N2CCN(CC(O)CN(C)C)C2=O)cc(C(F)(F)F)cc1C(F)(F)F)c1ccc(F)c(Cl)c1F (stereo not shown) [Example 40, 2-(3-(3-(dimethylamino)-2-hydroxypropyl)-2-oxoimidazolidin-1-yl)-4,6-bis(trifluoromethyl)phenyl (3-chloro-2,4-difluorophenyl)(methyl-d3)carbamate] |  | 6.3 nM |
| CN(C(=O)Oc1c(N2CCN(CC3(O)CN(C(=O)OC(C)(C)C)C3)C2=O)cc(C(F)(F)F)cc1C(F)(F)F)c1ccc(F)cc1 [Example 23, tert-butyl 3-((3-(2-(((4-fluorophenyl)(methyl)carbamoyl)oxy)-3,5-bis(trifluoromethyl)phenyl)-2-oxoimidazolidin-1-yl)methyl)-3-hydroxyazetidine-1-carboxylate] |  | 1.8 nM |
| CN(C(=O)Oc1c(N2CCN(CCOS(N)(=O)=O)C2=O)cc(C(F)(F)F)cc1C(F)(F)F)c1ccc(F)cc1 [Example 21, 2-{2-oxo-3-[2-(sulfamoyloxy)ethyl]imidazolidin-1-yl}-4,6-bis(trifluoromethyl)phenyl N-(4-fluorophenyl)-N-methylcarbamate] |  | 1.9 nM |
| CN(C(=O)Oc1c(N2CCN(CCOS(=O)(=O)NC(=O)COCCOCCOCCN)C2=O)cc(C(F)(F)F)cc1C(F)(F)F)c1ccc(F)cc1 [Example 30, 2-(3-(2-(((4-fluorophenyl)(methyl)carbamoyl)oxy)-3,5-bis(trifluoromethyl)phenyl)-2-oxoimidazolidin-1-yl)ethyl (2-(2-(2-(2-aminoehoxy)ethoxy)ethoxy)acetyl)sulfamate] |  | 2.2 nM |
| CN(C(=O)Oc1c(N2CCN(CC3CO3)C2=O)cc(C(F)(F)F)cc1C(F)(F)F)c1ccc(F)cc1 (stereo not shown) [Example 25, 2,4-bis(trifluoromethyl)-6-(3-((oxiran-2-yl)methyl)-2-oxoimidazolidin-1-yl)phenyl (4-fluorophenyl)(methyl)carbamate] |  | 5.8 nM |
| [2H]C([2H])([2H])N(C(=O)Oc1c(N2CCN(CC3(OS(N)(=O)=O)CN(C(=O)OC(C)(C)C)C3)C2=O)cc(C(F)(F)F)cc1C(F)(F)F)c1ccc(F)c(Cl)c1F [Example 39, tert-butyl 3-((3-(2-(((3-chloro-2,4-difluorophenyl)(methyl-d3)carbamoyl)oxy)-3,5-bis(trifluoromethyl)phenyl)-2-oxoimidazolidin-1-yl)methyl)-3-(sulfamoyloxy)azetidine-1-carboxylate] |  | 3.8 nM |
| CN(C(=O)Oc1c(N2CCNC2=O)cc(C(F)(F)F)cc1C(F)(F)F)c1ccc(OC(F)F)cc1 [Example 26, 2-(2-oxoimidazolidin-1-yl)-4,6-bis(trifluoromethyl)phenyl (4-(difluoromethoxy)phenyl)(methyl)carbamate] |  | 48 nM |
| C[C@@H]1CCC(=O)N1c1cc(C(F)(F)F)cc(C(F)(F)F)c1OC(=O)N(C)c1ccc(F)cc1 [Example 17, 2-[(2R)-2-methyl-5-oxopyrrolidin-1-yl]-4,6-bis(trifluoromethyl)phenyl N-(4-fluorophenyl)-N-methylcarbamate] |  | 1000 nM |
| CN(C(=O)Oc1c(N2C(=O)NC(O)C2O)cc(C(F)(F)F)cc1C(F)(F)F)c1ccc(F)cc1 (stereo not shown) [Example 16, 2-(4,5-dihydroxy-2-oxoimidazolidin-1-yl)-4,6-bis(trifluoromethyl)phenyl N-(4-fluorophenyl)-N-methylcarbamate] |  | 5.4 nM |
| CN(C(=O)Oc1c(N2CCN(CCN3CCOCC3)C2=O)cc(C(F)(F)F)cc1C(F)(F)F)c1ccc(F)cc1 [Example 1, 2-(3-(2-morpholinoethyl)-2-oxoimidazolidin-1-yl)-4,6-bis(trifluoromethyl)phenyl (4-fluorophenyl)(methyl)carbamate] |  | 12 nM |
